Reference: patent US7109186B2 (Bristol-Myers Squibb Company, priority 2002, dated 2006)

Key:
HIV-integrase = target: T1, HIV-integrase (Human immunodeficiency virus type 1 group M subtype B, UniProt P04585); experiment: HIV integrase SPA integration assay (biotin-labeled substrate DNA on streptavidin SPA beads, P33-labeled target DNA); type: biochemical; details: percent inhibition of HIV-integrase in the presence of 20 μM of compound
T1 construct: 0.26 ng of recombinant integrase was incubated with the beads for 90 min at 37 C
Method: For each reaction, 5 pmole of biotin labeled substrate DNA was bound to 100 ug of Streptavidin coated PVT SPA beads (Amersham Pharmacia Biotech). 0.26 ng of recombinant integrase was incubated with the beads for 90 min at 37 C. Unbound enzyme was removed by washing the complex followed by addition of inhibitors and 0.1 fmol of P33 labeled target DNA. Reaction was stopped by adding EDTA to a final concentration of 10 mM. Samples were counted in TopCountNXT (Packard) and the CPM was used as a measure of integration. Reaction condition was as described in A. Engelman and R. Craigie, J. Virol. 69, 5908–5911 (1995). The sequences of substrate and target DNA were described in Nucleic Acid Research 22, 1121–1122 (1994).

CON(Cc1ccc(F)c(Br)c1)C(=O)C1=C(O)C(=O)N(C)C1 [Compound 57, 4-Hydroxy-1-methyl-5-oxo-2,5-dihydro-1H-pyrrole-3-carboxylic acid (3-bromo-4-fluoro-benzyl)-methoxy-amide]
melting point: 154 to 157 °C (dec.)
inhibition at 20 µM (HIV-integrase): 99.9%

CCON(Cc1ccc(F)cc1)C(=O)C1=C(O)C(=O)N(C)C1 [Compound 53, 4-Hydroxy-1-methyl-5-oxo-2,5-dihydro-1H-pyrrole-3-carboxylic acid ethoxy-(4-fluoro-benzyl)-amide]
melting point: 113 to 114 °C
inhibition at 20 µM (HIV-integrase): 99%

CON(C(=O)C1=C(O)C(=O)N(C)C1)C(C)c1ccc(F)cc1 (centres unmarked) [Compound 69, 4-Hydroxy-1-methyl-5-oxo-2,5-dihydro-1H-pyrrole-3-carboxylic acid [1-(4-fluoro-phenyl)-ethyl]-methoxy-amide]
melting point: 136 to 138 °C
inhibition at 20 µM (HIV-integrase): 97%

CON(Cc1ccc(F)c(C)c1)C(=O)C1=C(O)C(=O)N(C)C1 [Compound 64, 4-Hydroxy-1-methyl-5-oxo-2,5-dihydro-1H-pyrrole-3-carboxylic acid (4-fluoro-3-methyl-benzyl)-methoxy-amide]
melting point: 160 to 164 °C
inhibition at 20 µM (HIV-integrase): 99.7%

COc1ccc(CN(OC)C(=O)C2=C(O)C(=O)N(C)C2)cc1 [Compound 55, 4-Hydroxy-1-methyl-5-oxo-2,5-dihydro-1H-pyrrole-3-carboxylic acid methoxy-(4-methoxy-benzyl)-amide]
melting point: 135 to 137 °C
inhibition at 20 µM (HIV-integrase): 99.9%

CON(Cc1ccc(F)cc1Cl)C(=O)C1=C(O)C(=O)N(C)C1 [Compound 74, 4-Hydroxy-1-methyl-5-oxo-2,5-dihydro-1H-pyrrole-3-carboxylic acid (2-chloro-4-fluoro-benzyl)-methoxy-amide]
melting point: 152 to 155 °C
inhibition at 20 µM (HIV-integrase): 97.8%

CON(Cc1ccc(Cl)c(Cl)c1)C(=O)C1=C(O)C(=O)N(C)C1 [Compound 47, 4-Hydroxy-1-methyl-5-oxo-2,5-dihydro-1H-pyrrole-3-carboxylic acid (3,4-dichloro-benzyl)-methoxy-amide]
melting point: 149 °C
inhibition at 20 µM (HIV-integrase): 99.9%

CN(C)C(=O)CON(Cc1ccc(F)cc1)C(=O)C1=C(O)C(=O)N(C)C1 [Compound 72, 4-Hydroxy-1-methyl-5-oxo-2,5-dihydro-1H-pyrrole-3-carboxylic acid dimethylcarbamoylmethoxy-(4-fluoro-benzyl)-amide]
melting point: 147 to 149 °C
inhibition at 20 µM (HIV-integrase): 98.8%

CC(C)CON(Cc1ccc(F)cc1)C(=O)C1=C(O)C(=O)N(C)C1 [Compound 58, 4-Hydroxy-1-methyl-5-oxo-2,5-dihydro-1H-pyrrole-3-carboxylic acid (4-fluoro-benzyl)-isobutoxy-amide]
melting point: 96 to 97 °C
inhibition at 20 µM (HIV-integrase): 99.5%

CN1CC(C(=O)N(Cc2ccc(F)cc2)c2ccc(Cl)c(Cl)c2)=C(O)C1=O [Compound 78, 4-Hydroxy-1-methyl-5-oxo-2,5-dihydro-1H-pyrrole-3-carboxylic acid (3,4-dichloro-phenyl)-(4-fluoro-benzyl)-amide]
melting point: 195 °C (dec.)
inhibition at 20 µM (HIV-integrase): 99.9%

CON(Cc1ccc(C(=O)O)cc1)C(=O)C1=C(O)C(=O)N(C)C1 [Compound 68, 4-{[(4-Hydroxy-1-methyl-5-oxo-2,5-dihydro-1H-pyrrole-3-carbonyl)-methoxy-amino]-methyl}-benzoic acid]
melting point: 196 to 197 °C
inhibition at 20 µM (HIV-integrase): 12%

CN(Cc1ccc(Cl)c(Cl)c1)C(=O)C1=C(O)C(=O)N(CC(=O)O)C1 [Compound 20, {4-[(3,4-Dichloro-benzyl)-methyl-carbamoyl]-3-hydroxy-2-oxo-2,5-dihydro-pyrrol-1-yl}-acetic acid]
melting point: 178 to 180 °C
inhibition at 20 µM (HIV-integrase): 99.9%

CON(Cc1ccc(F)c(F)c1)C(=O)C1=C(O)C(=O)N(C)C1 [Compound 54, 4-Hydroxy-1-methyl-5-oxo-2,5-dihydro-1H-pyrrole-3-carboxylic acid (3,4-difluoro-benzyl)-methoxy-amide]
melting point: 146 to 147 °C
inhibition at 20 µM (HIV-integrase): 99.9%
